Read-outs that look alike come from different tables or passages of the source.
Legend:
cancer cells = experiment: Resistance of drug-treated cancer cells to chemotherapy and radiation therapy (data not shown); assay type: cell-based
Source text: (§1) In this example, cancer cells were first treated with various types of anti-cancer drugs, before been subject to the treatment of NK92MI-CEA cells.

[1] = tested on: CEA expression on cancer cells; experiment: Determination of CEA expression on cancer cells by flow cytometry after drug treatment; assay type: cell-based, Human; conditions: data not shown
Method: The expression level of CEA on cancer cells were determined by flow cytometry. Cancer cells were stained with the human CEA-specific antibody followed by the analysis of flow cytometry. The fluorescence intensities of at least 10^5 cells were recorded and analyzed by software. Geometric mean was chosen as mean fluorescence intensity (MFI).
as §1

HCT116 cells [2] = tested on: HCT116 cells
Method: In this experiment, the cancer cells (i.e., HCT116 or WiDr cells) and the NK cells (i.e., NK92MI or NK92MI-CEA cells) respectively served as the target and effector cells. In brief, the target cells were co-incubated with the effector cells at various effector/target ratios (E/T), including 10:1, 5:1, 1:1, and 0.5:1, in a round-bottom 96-well culture plate. After incubating at 37° C. for 24 hours, 50 μl of the supernatant was isolated and mixed with 50 μl of CYTOTOX 96® Reagent in a flat-bottom 96-well enzymatic assay plate. The mixture was incubated at room temperature for 30 minutes followed by adding 50 μl stop solution (H2SO4) to stop the reaction. The absorbance was measured at 490 nm. The percentage of cytotoxicity for each effector:target cell ratio was calculated by the equation of,
(Experimental−culture medium background)−(Effector cell spontaneous release−culture medium background)−(Target spontaneous release−culture medium background)/(Target maximum release−volume correction control−Target spontaneous release−culture medium background)×100.

HCT116 cells [3] = experiment: 5-fluorouracil IC50 in HCT116 cells alone or co-treated with sodium butyrate or 5-azacytidine; assay type: cell-based, Human; conditions: for induction of drug resistance (5-fluorouracil) in cancer cells: HCT116 and WiDr cells, co-treatment with 5-fluorouracil 72 hours, sodium butyrate 0.1 mM, 5-azacytidine 1 μM
Method: (§2) Human colon cancer cell line LS174T (ATCC® CL-188™) and WiDr cells (ATCC CCL-218™) were maintained in alpha modification of Eagle's minimum essential medium (α-MEM) containing 1.5 g/L sodium bicarbonate and 10% fetal bovine serum (FBS). HCT116 cells (ATCC® CCL-247™) were cultured in McCoy's 5A medium containing 1.5 g/L sodium bicarbonate, 4.5 g/L glucose, 10 mM HEPES, 1.0 mM sodium pyruvate and 10% FBS. The NK92MI and NK92MI-CEA cells were cultured in α-MEM supplemented with 1.5 g/L sodium bicarbonate, 0.2 mM inositol, 0.02 mM folic acid, 0.01 mM 2-mercaptoethanol, 10% FBS and 12.5% horse serum. All cells were incubated at 37° C. in a humidified incubator with 5% CO2.
(§3) HCT116 and WiDr cells were co-treated with sodium butyrate (0.1 mM) or 5-azacytidine (1 μM) and different concentration of 5-fluorouracil (1.2, 2.4, 4.8, 9.6, and 19.2 μM) for 72 hours.

WiDr cells [4] = experiment: 5-fluorouracil IC50 in WiDr cells alone or co-treated with sodium butyrate or 5-azacytidine; assay type: cell-based; conditions: Homo sapiens, 72 hours, co-treatment sodium butyrate 0.1 mM or 5-azacytidine 1 μM, three independent experiments, read-out: IC50 of 5-fluorouracil (μM) Mean ± SD
Method: as §2, §3

WiDr cells [5] = experiment: WiDr xenograft in SCID mice, tumor volume; assay type: in vivo; conditions: SCID mice with WiDr tumors
Method: 2×10^6 WiDr cells were subcutaneously implanted on the back of 9-weeks-old SCID mice. When tumors reached a volume of 100-200 mm^3, the mice were intraperitoneally administered with 200 mg/kg sodium butyrate for 5 consecutive days. Then, the mice were assigned into five groups: (1) control group, in which the mice were orally administrated with PBS every day, and intraperitoneally administrated with PBS every 4 days; (2) NaB group, in which the mice were orally administrated with 5 g/kg sodium butyrate every day, and intraperitoneally administrated with PBS every 4 days; (3) NK92MI group, in which the mice were orally administrated with PBS every day, and intraperitoneally administrated with NK92MI cells every 4 days; (4) NK92MI-CEA group, in which the mice were orally administrated with PBS every day, and intraperitoneally administration with NK92MI-CEA cells every 4 days; and (5) NK92MI-CEA+NaB group, in which the mice were orally administration with 5 g/kg sodium butyrate every day, and intraperitoneally administration with NK92MI-CEA every 4 days. Tumor volume of the mice was measured every 2-3 days, and tumor volumes on were calculated using the formula: length×(width)^2÷2 (*p<0.05). […]
The in vivo anti-tumor activity of NK92MI-CEA cells was evaluated in this example. […]

[6] = tested on: serum circulating CEA (cCEA); experiment: Serum circulating CEA (ELISA) in WiDr tumor-bearing SCID mice; assay type: in vivo; conditions: FIG. 4C, control group 520 pg/ml

| IC50 (HCT116 cells [3]; Homo sapiens, HCT-116, HCT116 cells, 72 hours, co-treatment sodium butyrate 0.1 mM or 5-azacytidine 1 μM, three independent experiments, read-out: IC50 of 5-fluorouracil (μM) Mean ± SD) | IC50 (WiDr cells [4]) | Compound | resistance of cancer cells to chemotherapy and radiation therapy (cancer cells) | CEA expression on cancer cells [1] | enhancement of cytotoxic effect of NK92MI-CEA cells (HCT116 cells [2]) | induction of drug resistance (5-fluorouracil) in cancer cells (HCT116 cells [3]) | enhancement of cytotoxic effect of NK92MI-CEA cells (HCT116 cells [2]; HCT116 cells treated with agent, E/T ratio 10:1, 5:1, 1:1 or 0.5:1, versus control and untreated groups, FIGS. 3A, 3B) | tumor growth (FIG. 4A) (WiDr cells [5]; NK cells i.p. every 4 days, sodium butyrate 5 g/kg orally every day) | tumour growth / tumour size (FIG. 4B) (WiDr cells [5]; compared to control group) | concentration of cCEA in the serum of mice [6] |
| --- | --- | --- | --- | --- | --- | --- | --- | --- | --- | --- |
|  |  | Nc1ncn([C@@H]2O[C@H](CO)[C@@H](O)[C@H]2O)c(=O)n1 [5-azacytidine] | rendered the cancer cells resistant to the chemotherapy and radiation therapy | significantly increased CEA expression | significantly enhanced cytotoxic effect | induced drug resistance in cancer cells |  |  |  |  |
| 4.39 ± 3.1 µM | 4.67 ± 0.55 µM | O=c1[nH]cc(F)c(=O)[nH]1 [5-fluorouracil] |  |  |  |  |  |  |  |  |
|  |  | CCCC(=O)[O-].[Na+] [sodium butyrate] | rendered the cancer cells resistant to the chemotherapy and radiation therapy | significantly increased CEA expression |  | induced drug resistance in cancer cells | significantly enhanced cytotoxic effect | obviously enhanced the anti-tumor effect of NK92MI-CEA cells | did not obviously inhibit tumour growth | 990 pg/mL |
